Laboratory results published in US7736624B2, “Methods and compositions for diagnostic and therapeutic targeting of COX-2” (priority 2006, dated 2010).
Where two headings read alike, the source gives them in different places.

Columns and labels:
ovine COX-1 = molecular target: T1, ovine COX-1 (Ovis aries, UniProt P05979); experiment: IC50 determinations using purified enzymes (TLC assay), COX-1; type: biochemical; conditions: assayed against purified enzymes
T1 construct: can be purified from ovine seminal vesicles by standard procedures; from tissue; host or cells: ovine seminal vesicles
T1 sequence (P05979 25-600): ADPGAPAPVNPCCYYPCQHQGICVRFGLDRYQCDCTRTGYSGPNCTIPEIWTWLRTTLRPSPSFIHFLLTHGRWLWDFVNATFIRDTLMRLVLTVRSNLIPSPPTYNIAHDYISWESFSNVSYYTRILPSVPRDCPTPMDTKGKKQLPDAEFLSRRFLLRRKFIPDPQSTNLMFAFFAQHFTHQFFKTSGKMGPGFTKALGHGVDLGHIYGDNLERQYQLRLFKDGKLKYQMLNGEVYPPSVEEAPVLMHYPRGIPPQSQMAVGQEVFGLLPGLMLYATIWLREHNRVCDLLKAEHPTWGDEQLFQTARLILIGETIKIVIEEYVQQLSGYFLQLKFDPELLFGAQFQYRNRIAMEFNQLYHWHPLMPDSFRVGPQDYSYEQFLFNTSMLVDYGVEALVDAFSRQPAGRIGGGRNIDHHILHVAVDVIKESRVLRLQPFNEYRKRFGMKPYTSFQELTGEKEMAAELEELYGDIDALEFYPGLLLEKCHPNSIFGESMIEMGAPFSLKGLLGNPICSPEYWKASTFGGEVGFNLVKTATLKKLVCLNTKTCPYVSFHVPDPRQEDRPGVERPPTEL
Excerpt: (§1) Those skilled in the art will appreciate that an evaluation of the selectivity and efficacy of binding of the NSAID derivative to the COX-2 enzyme, e.g., after the derivative is synthesized, can be desirable. […] One example of an in vitro screening method takes advantage of the fact that both human and murine recombinant COX-2 can be expressed and isolated in pure form from an Sf9 cell expression system. […] Alternatively, membrane preparations from outdated human platelets can provide a source of human COX-1. […] The reaction is stopped by the addition of ethanol/methanol/1 M citrate, pH 4.0 (30:4:1). The extracted products are separated by thin layer chromatography (TLC), which allows quantitation of total product formation as well as assessment of product distribution. This assay is useful to define IC50 values for inhibition of either enzyme, and to determine time-dependency of inhibition. It also provides information concerning changes in products formed as a result of inhibition.
(§2) Reactions were terminated by solvent extraction in Et2O/CH3OH/1 M citrate, pH 4.0 (30:4:1). The phases were separated by centrifugation at 2000 g for 5 minutes and the organic phase was spotted on a 20×20 cm TLC plate (Lieselgel 60, EMD Chemicals, Inc., Gibbstown, N.J., United States of America). The plate was developed in EtOAc/CH2Cl2/glacial AcOH (75:25:1) at 4° C. Radiolabeled prostanoid products were quantitatively determined with a radioactivity scanner available from Bioscan, Inc. (Washington, D.C., United States of America). The percentage of total products observed at different concentrations of the presently disclosed compositions was divided by the percentage of products observed for protein samples preincubated for the same amount of time with DMSO.

COX-2 = molecular target: T2, COX-2 (Homo sapiens, UniProt P35354); experiment: IC50 determinations using purified enzymes (TLC assay), COX-2; type: biochemical; set-up: made in house; host or cells: Sf9 insect cells
T2 sequence (P35354 18-604): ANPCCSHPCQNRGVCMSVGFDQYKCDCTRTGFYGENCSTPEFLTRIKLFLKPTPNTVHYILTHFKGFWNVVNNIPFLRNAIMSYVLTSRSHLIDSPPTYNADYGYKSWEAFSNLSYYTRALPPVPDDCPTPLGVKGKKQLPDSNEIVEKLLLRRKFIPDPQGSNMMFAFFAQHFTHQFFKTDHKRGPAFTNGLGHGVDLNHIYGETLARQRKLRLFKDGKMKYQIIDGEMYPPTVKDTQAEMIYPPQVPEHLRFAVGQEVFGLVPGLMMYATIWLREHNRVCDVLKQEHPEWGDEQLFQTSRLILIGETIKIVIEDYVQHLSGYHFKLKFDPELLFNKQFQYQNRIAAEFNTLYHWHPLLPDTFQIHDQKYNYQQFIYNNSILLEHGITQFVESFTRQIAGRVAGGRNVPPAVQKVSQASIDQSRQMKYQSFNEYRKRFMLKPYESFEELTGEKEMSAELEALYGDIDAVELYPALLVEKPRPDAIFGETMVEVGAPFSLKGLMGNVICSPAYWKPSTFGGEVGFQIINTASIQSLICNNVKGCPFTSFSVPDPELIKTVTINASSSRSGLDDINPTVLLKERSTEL
Excerpt: as §1, §2

[1] = Table 3, assayed against purified enzymes, read-out: IC50 COX-2
[2] = purified enzyme, read-out: COX-2 IC50
[3] = Table 2, assayed against purified enzymes, read-out: IC50 COX-2

Compound | IC50 (ovine COX-1; Table 3) | IC50 (COX-2; [1]) | other results
COc1ccc2c(c1)c(CC(=O)NCCCNC(=O)c1ccc(C(=O)[O-])c(-c3c4ccc(=[N+](C)C)cc-4oc4cc(N(C)C)ccc34)c1)c(C)n2C(=O)c1ccc(Cl)cc1 [Compound 27aaa] | > 25 µM | 3.9 µM | –
COc1ccc2c(c1)c(CC(=O)NCCCN1CCN(CCCNC(=O)c3ccc(C(=O)[O-])c(C4=c5cc6c7c(c5Oc5c4cc4c8c5CCCN8CCC4)CCC[N+]=7CCC6)c3)CC1)c(C)n2C(=O)c1ccc(Cl)cc1 [Compound 27bbb] | > 25 µM | > 25 µM | –
COc1ccc2c(c1)c(CC(=O)NCCN1CCN(C(=O)c3ccc(C(=O)[O-])c(C4=c5cc6c7c(c5Oc5c4cc4c8c5CCCN8CCC4)CCC[N+]=7CCC6)c3)CC1)c(C)n2C(=O)c1ccc(Cl)cc1 [Compound 27ccc] | > 25 µM | > 25 µM | –
COc1ccc2c(c1)c(CC(=O)N1CCNCC1)c(C)n2C(=O)c1ccc(Cl)cc1 [Compound 27ddd] | 1.8 µM | > 25 µM | –
COc1ccc2c(c1)c(CC(=O)N1CCN(C(=O)c3ccc(C(=O)[O-])c(C4=c5cc6c7c(c5Oc5c4cc4c8c5CCCN8CCC4)CCC[N+]=7CCC6)c3)CC1)c(C)n2C(=O)c1ccc(Cl)cc1 [Compound 27fff] | > 25 µM | > 25 µM | –
COc1ccc2c(c1)c(CC(=O)NCCNC(=O)c1ccc(C3=c4cc5c6c(c4Oc4c3cc3c7c4CCCN7CCC3)CCC[N+]=6CCC5)c(C(=O)[O-])c1)c(C)n2C(=O)c1ccc(Cl)cc1 [Compound 27ggg] | 0.5 µM | 2.8 µM | –
COc1ccc2c(c1)c(CC(=O)NCCNC(=O)/C=C(C)/C=C/C=C(C)/C=C/C1=C(C)CCCC1(C)C)c(C)n2C(=O)c1ccc(Cl)cc1 [Compound 27h] | – | – | IC50 (ovine COX-1; Table 1): > 4 µM; IC50 (COX-2; [2]): 0.107 µM
COc1ccc2c(c1)c(CC(=O)N1CCN(C(=O)c3ccc(C4=c5cc6c7c(c5Oc5c4cc4c8c5CCCN8CCC4)CCC[N+]=7CCC6)c(C(=O)[O-])c3)CC1)c(C)n2C(=O)c1ccc(Cl)cc1 [Compound 27hhh] | 5.8 µM | 1.3 µM | –
CCN(CC)c1ccc2c(-c3ccc(S(=O)(=O)NCCCCNC(=O)Cc4c(C)n(C(=O)c5ccc(Cl)cc5)c5ccc(OC)cc45)cc3S(=O)(=O)[O-])c3ccc(=[N+](CC)CC)cc-3oc2c1 [Compound 27lll] | > 25 µM | > 25 µM | –
CCCCNC(=O)Cc1c(C)n(C(=O)c2ccc(Cl)cc2)c2ccc(OC)cc12 [Compound 27nnn] | > 25 µM | > 25 µM | –
COc1ccc2c(c1)c(CC(=O)NCCCCOC(=O)CCC(=O)O[C@H]1c3cc4c(cc3[C@@H](c3cc(OC)c(OC)c(OC)c3)[C@H]3C(=O)OC[C@@H]31)OCO4)c(C)n2C(=O)c1ccc(Cl)cc1 [Compound 27p] | – | – | IC50 (ovine COX-1; Table 1): > 4 µM; IC50 (COX-2; [2]): 0.147 µM
CCN1C(=CC=CC=CC2=[N+](CCCCS(=O)(=O)[O-])c3ccc4ccccc4c3C2(C)C)C(C)(C)c2cc(CC(=O)NCCCCNC(=O)Cc3c(C)n(C(=O)c4ccc(Cl)cc4)c4ccc(OC)cc34)ccc21 [Compound 27qqq] | > 25 µM | 0.5 µM | –
COc1ccc2c(c1)c(CC(=O)NCCNC(=O)/C=C(C)/C=C/C=C(C)\C=C\C1=C(C)CCCC1(C)C)c(C)n2C(=O)c1ccc(Cl)cc1 [Compound 27s] | – | – | IC50 (ovine COX-1; Table 2): > 25 µM; IC50 (COX-2; [3]): 0.388 µM
COc1ccc2c(c1)c(CC(=O)Nc1ccc(S(=O)(=O)Nc3cc(OC)nc(OC)n3)cc1)c(C)n2C(=O)c1ccc(Cl)cc1 [Compound 27u] | – | – | IC50 (COX-2; [3]): 0.148 µM
COc1ccc2c(c1)c(CC(=O)OCCN1CCN(CCCN3c4ccccc4Sc4ccc(Cl)cc43)CC1)c(C)n2C(=O)c1ccc(Cl)cc1 [Compound 27v] | – | – | IC50 (ovine COX-1; Table 2): > 25 µM; IC50 (COX-2; [3]): 0.387 µM
Cc1ccc(-c2cc(CCC(=O)O)nn2-c2ccc(S(C)(=O)=O)cc2)cc1 [Compound 29e] | – | – | IC50 (COX-2; [3]): > 25 µM

More lines, main results first:

IC50 (ovine COX-1; Table 3) | IC50 (COX-2; [1]) | Compound | other results
0.214 µM | 0.134 µM | COc1ccc2c(c1)c(CC(=O)NCCCNS(=O)(=O)c1ccc(/N=N/c3ccc(N(C)C)cc3)cc1)c(C)n2C(=O)c1ccc(Cl)cc1 [Compound 27bb] | –
> 25 µM | > 25 µM | COc1ccc2c(CC(=O)NCCNC(=O)Cc3c(C)n(C(=O)c4ccc(Cl)cc4)c4ccc(OC)cc34)cc(=O)oc2c1 [Compound 27dd] | –
> 25 µM | 0.6 µM | COc1ccc2c(c1)c(CC(=O)NCCCNC(=O)c1cc3ccccc3oc1=O)c(C)n2C(=O)c1ccc(Cl)cc1 [Compound 27ee] | –
> 25 µM | 0.031 µM | CCN(CC)c1ccc2cc(C(=O)NCCCCNC(=O)Cc3c(C)n(C(=O)c4ccc(Cl)cc4)c4ccc(OC)cc34)c(=O)oc2c1 [Compound 27ff] | –
> 25 µM | 0.053 µM | CCN(CC)c1ccc2cc(C(=O)NCCCNC(=O)Cc3c(C)n(C(=O)c4ccc(Cl)cc4)c4ccc(OC)cc34)c(=O)oc2c1 [Compound 27gg] | –
> 25 µM | 0.51 µM | COc1ccc2c(c1)c(CC(=O)NCCNC(=O)/C=C/c1ccc(N(C)C)cc1)c(C)n2C(=O)c1ccc(Cl)cc1 [Compound 27hh] | –
5.35 µM | > 25 µM | COc1ccc2c(c1)c(CC(=O)NCCNC(=S)Nc1ccc(-c3c4ccc(=O)cc-4oc4cc(O)ccc34)c(C(=O)O)c1)c(C)n2C(=O)c1ccc(Cl)cc1 [Compound 27jj] | –
> 25 µM | > 25 µM | COc1ccc2c(c1)c(CC(=O)NCCCNC(=S)Nc1ccc(-c3c4ccc(=O)cc-4oc4cc(O)ccc34)c(C(=O)O)c1)c(C)n2C(=O)c1ccc(Cl)cc1 [Compound 27kk] | –
> 25 µM | 3.1 µM | COc1ccc2c(c1)c(CC(=O)NCCCCNC(=S)Nc1ccc(-c3c4ccc(=O)cc-4oc4cc(O)ccc34)c(C(=O)O)c1)c(C)n2C(=O)c1ccc(Cl)cc1 [Compound 27ll] | –
22.5 µM | 3.2 µM | COc1ccc2c(c1)c(CC(=O)NCCCCNC(=O)c1ccc(C(=O)O)c(-c3c4cc(F)c(=O)cc-4oc4cc(O)c(F)cc34)c1)c(C)n2C(=O)c1ccc(Cl)cc1 [Compound 27mm] | –
> 25 µM | > 25 µM | COc1ccc2c(c1)c(CC(=O)NCCCCNC(=O)CCCCCNC(=O)c1ccc(-c3c4ccc(=O)cc-4oc4cc(O)ccc34)c(C(=O)O)c1)c(C)n2C(=O)c1ccc(Cl)cc1 [Compound 27oo] | –
> 25 µM | > 25 µM | COc1ccc2c(c1)c(CC(=O)NCCCCNC(=O)c1ccc(-c3c4ccc(=O)cc-4oc4cc(O)ccc34)c(C(=O)O)c1)c(C)n2C(=O)c1ccc(Cl)cc1 [Compound 27pp] | –
> 25 µM | > 25 µM | COc1ccc2c(c1)c(CC(=O)N1CCN(C(=O)c3ccc(C(=O)O)c(-c4c5ccc(=O)cc-5oc5cc(O)ccc45)c3)CC1)c(C)n2C(=O)c1ccc(Cl)cc1 [Compound 27tt] | –
> 25 µM | > 25 µM | COc1ccc2c(c1)c(CC(=O)NCCCCNC(=O)c1ccc(C(=O)[O-])c(-c3c4ccc(=[N+](C)C)cc-4oc4cc(N(C)C)ccc34)c1)c(C)n2C(=O)c1ccc(Cl)cc1 [Compound 27xx] | –
> 25 µM | > 25 µM | COc1ccc2c(c1)c(CC(=O)NCCCNC(=O)c1ccc(C(=O)[O-])c(C3=c4cc5c6c(c4Oc4c3cc3c7c4CCCN7CCC3)CCC[N+]=6CCC5)c1)c(C)n2C(=O)c1ccc(Cl)cc1 [Compound 27yy] | –
